Measurements: ChEMBL document CHEMBL5154769, “Discovery of the First-in-Class Agonist-Based SOS1 PROTACs Effective in Human Cancer Cells Harboring Various KRAS Mutations” (J Med Chem, 2022)
Calls of active or inactive are those of the source. The rule behind the calls is not given here.

Experiments:
[1] = biological target: T1, von Hippel-Lindau disease tumor suppressor/Son of sevenless homolog 1 (Homo sapiens, UniProt Q07889+P40337); assay: Protac activity at VHL/SOS1 in human NCI-H358 cells assessed as SOS1 protein degradation at 0.1 uM incubated for 24 hr by Western blot analysis relative to control; format: cell-based
Target sequence in this assay (P40337 whole entry, looked up): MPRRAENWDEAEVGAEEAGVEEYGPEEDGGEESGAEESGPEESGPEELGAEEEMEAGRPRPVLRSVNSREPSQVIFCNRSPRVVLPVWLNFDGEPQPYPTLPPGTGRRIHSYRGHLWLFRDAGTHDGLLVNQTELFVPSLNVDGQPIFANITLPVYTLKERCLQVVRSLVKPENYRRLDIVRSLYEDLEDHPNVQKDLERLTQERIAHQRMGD
Target sequence in this assay (Q07889 whole entry, looked up): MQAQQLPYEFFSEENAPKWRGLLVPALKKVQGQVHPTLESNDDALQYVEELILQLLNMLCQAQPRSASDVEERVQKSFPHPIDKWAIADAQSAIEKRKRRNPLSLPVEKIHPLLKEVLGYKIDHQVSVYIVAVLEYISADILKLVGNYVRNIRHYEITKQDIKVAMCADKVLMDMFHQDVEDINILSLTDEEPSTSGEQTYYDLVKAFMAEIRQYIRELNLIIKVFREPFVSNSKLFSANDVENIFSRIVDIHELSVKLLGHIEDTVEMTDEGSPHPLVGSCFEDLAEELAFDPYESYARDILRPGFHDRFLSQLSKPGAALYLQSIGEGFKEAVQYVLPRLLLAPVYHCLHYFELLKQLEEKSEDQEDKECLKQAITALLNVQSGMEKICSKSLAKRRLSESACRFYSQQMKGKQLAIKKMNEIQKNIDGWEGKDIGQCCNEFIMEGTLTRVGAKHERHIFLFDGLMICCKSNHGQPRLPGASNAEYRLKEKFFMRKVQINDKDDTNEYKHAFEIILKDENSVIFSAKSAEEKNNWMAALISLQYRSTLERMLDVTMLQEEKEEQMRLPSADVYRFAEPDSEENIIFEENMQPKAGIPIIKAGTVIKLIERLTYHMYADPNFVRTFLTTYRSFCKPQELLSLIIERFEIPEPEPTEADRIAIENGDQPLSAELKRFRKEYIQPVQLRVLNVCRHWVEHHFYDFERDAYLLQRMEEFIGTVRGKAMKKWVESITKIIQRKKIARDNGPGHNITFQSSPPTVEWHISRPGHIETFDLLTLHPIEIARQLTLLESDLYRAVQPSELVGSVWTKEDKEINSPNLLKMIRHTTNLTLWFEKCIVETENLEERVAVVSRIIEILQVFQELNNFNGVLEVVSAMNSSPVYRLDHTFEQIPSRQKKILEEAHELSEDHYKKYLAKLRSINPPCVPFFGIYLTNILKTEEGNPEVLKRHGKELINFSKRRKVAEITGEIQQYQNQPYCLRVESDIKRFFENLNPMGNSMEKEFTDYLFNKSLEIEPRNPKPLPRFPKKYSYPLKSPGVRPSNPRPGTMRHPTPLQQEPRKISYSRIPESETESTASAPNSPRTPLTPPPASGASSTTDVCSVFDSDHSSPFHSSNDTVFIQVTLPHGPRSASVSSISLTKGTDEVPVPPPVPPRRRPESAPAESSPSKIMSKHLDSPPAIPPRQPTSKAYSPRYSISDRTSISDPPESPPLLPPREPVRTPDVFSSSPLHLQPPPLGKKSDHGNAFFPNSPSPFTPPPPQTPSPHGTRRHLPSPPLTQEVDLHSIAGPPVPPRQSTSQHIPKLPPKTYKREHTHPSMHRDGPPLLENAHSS

[2] = biological target: T1, von Hippel-Lindau disease tumor suppressor/Son of sevenless homolog 1; assay: Protac activity at VHL/SOS1 in human NCI-H358 cells assessed as SOS1 protein degradation at 1 uM incubated for 24 hr by Western blot analysis relative to control; format: cell-based
Target sequence in this assay (P40337 whole entry, looked up): as the sequence (P40337 whole entry, looked up) above
Target sequence in this assay (Q07889 whole entry, looked up): as the sequence (Q07889 whole entry, looked up) above

[3] = biological target: T1, von Hippel-Lindau disease tumor suppressor/Son of sevenless homolog 1; assay: Protac activity at VHL/SOS1 in human NCI-H358 cells assessed as SOS1 protein degradation incubated for 24 hr by Western blot analysis; format: cell-based
Target sequence in this assay (Q07889 whole entry): as the sequence (Q07889 whole entry, looked up) above
Target sequence in this assay (P40337 whole entry): as the sequence (P40337 whole entry, looked up) above

[4] = system: NCI-H358; assay: Effect of compound on human NCI-H358 cells assessed as increase in phophorylated ERK level incubated for 24 hr by Western blot analysis; format: functional, cell-based

SMILES	Activity [1]	Activity [2]	DC50 [3]	Activity [4]
Cc1cc(Cn2c(N3CC4(CNC4)C3)nc3c(N4CCN(CC5CCN(CCC(=O)N[C@H](C(=O)N6C[C@H](O)C[C@H]6C(=O)N[C@@H](C)c6ccc(-c7scnc7C)cc6)C(C)(C)C)CC5)CC4)cc(Cl)cc32)cc(C)c1F	18.1%	9.4%	–	–
Cc1cc(Cn2c(N3CC4(CNC4)C3)nc3c(N4CCN(CCOCCOCC(=O)N[C@H](C(=O)N5C[C@H](O)C[C@H]5C(=O)N[C@@H](C)c5ccc(-c6scnc6C)cc5)C(C)(C)C)CC4)cc(Cl)cc32)cc(C)c1F	23.3%	24.4%	–	–
Cc1cc(Cn2c(N3CC4(CNC4)C3)nc3c(N4CCN(CCCCCCC(=O)N[C@H](C(=O)N5C[C@H](O)C[C@H]5C(=O)N[C@@H](C)c5ccc(-c6scnc6C)cc5)C(C)(C)C)CC4)cc(Cl)cc32)cc(C)c1F	30.7%	79.9%	216 nM	–
Cc1cc(Cn2c(N3CC4(CNC4)C3)nc3c(N4CCN(CCCCCCCCCC(=O)N[C@H](C(=O)N5C[C@H](O)C[C@H]5C(=O)N[C@@H](C)c5ccc(-c6scnc6C)cc5)C(C)(C)C)CC4)cc(Cl)cc32)cc(C)c1F	38.5%	82%	182 nM	–
Cc1cc(Cn2c(N3CC4(CNC4)C3)nc3c(N4CCN(CCCCC(=O)NCCCC(=O)N[C@H](C(=O)N5C[C@H](O)C[C@H]5C(=O)N[C@@H](C)c5ccc(-c6scnc6C)cc5)C(C)(C)C)CC4)cc(Cl)cc32)cc(C)c1F	3.2%	0%	–	–
Cc1cc(Cn2c(N3CC4(CNC4)C3)nc3c(N4CCN(CC5CCN(CCCC(=O)N[C@H](C(=O)N6C[C@H](O)C[C@H]6C(=O)N[C@@H](C)c6ccc(-c7scnc7C)cc6)C(C)(C)C)CC5)CC4)cc(Cl)cc32)cc(C)c1F	7%	11.2%	–	–
Cc1cc(Cn2c(N3CC4(CNC4)C3)nc3c(N4CCN(C)CC4)cc(Cl)cc32)cc(C)c1F	–	–	–	Active
Cc1cc(Cn2c(N3CC4(CNC4)C3)nc3c(N4CCN(CCCCCCCC(=O)N[C@H](C(=O)N5C[C@H](O)C[C@H]5C(=O)N[C@@H](C)c5ccc(-c6scnc6C)cc5)C(C)(C)C)CC4)cc(Cl)cc32)cc(C)c1F	27.6%	80.9%	150 nM	–
Cc1cc(Cn2c(N3CC4(CNC4)C3)nc3c(N4CCN(CC5CCN(CC(=O)N[C@H](C(=O)N6C[C@H](O)C[C@H]6C(=O)N[C@@H](C)c6ccc(-c7scnc7C)cc6)C(C)(C)C)CC5)CC4)cc(Cl)cc32)cc(C)c1F	13%	43.3%	–	–
Cc1cc(Cn2c(N3CC4(CNC4)C3)nc3c(N4CCN(CCC(=O)NCCCC(=O)N[C@H](C(=O)N5C[C@H](O)C[C@H]5C(=O)N[C@@H](C)c5ccc(-c6scnc6C)cc5)C(C)(C)C)CC4)cc(Cl)cc32)cc(C)c1F	0%	18.3%	–	–
Cc1cc(Cn2c(N3CC4(CNC4)C3)nc3c(N4CCN(CCOCCOCCC(=O)N[C@H](C(=O)N5C[C@H](O)C[C@H]5C(=O)N[C@@H](C)c5ccc(-c6scnc6C)cc5)C(C)(C)C)CC4)cc(Cl)cc32)cc(C)c1F	4.4%	14%	–	–
Cc1cc(Cn2c(N3CC4(CNC4)C3)nc3c(N4CCN(CCCCCCCCCCC(=O)N[C@H](C(=O)N5C[C@H](O)C[C@H]5C(=O)N[C@@H](C)c5ccc(-c6scnc6C)cc5)C(C)(C)C)CC4)cc(Cl)cc32)cc(C)c1F	31.7%	63.2%	–	–
Cc1cc(Cn2c(N3CC4(CNC4)C3)nc3c(N4CCN(CCCC(=O)NCCCC(=O)N[C@H](C(=O)N5C[C@H](O)C[C@H]5C(=O)N[C@@H](C)c5ccc(-c6scnc6C)cc5)C(C)(C)C)CC4)cc(Cl)cc32)cc(C)c1F	8%	12.7%	–	–
Cc1cc(Cn2c(N3CC4(CNC4)C3)nc3c(N4CCN(CCOCCOCCOCCC(=O)N[C@H](C(=O)N5C[C@H](O)C[C@H]5C(=O)N[C@@H](C)c5ccc(-c6scnc6C)cc5)C(C)(C)C)CC4)cc(Cl)cc32)cc(C)c1F	15.4%	36.6%	–	–
Cc1cc(Cn2c(N3CC4(CNC4)C3)nc3c(N4CCN(CCCCCC(=O)N[C@H](C(=O)N5C[C@H](O)C[C@H]5C(=O)N[C@@H](C)c5ccc(-c6scnc6C)cc5)C(C)(C)C)CC4)cc(Cl)cc32)cc(C)c1F	5.8%	30.4%	–	–
Cc1cc(Cn2c(N3CC4(CNC4)C3)nc3c(N4CCN(CCCCCCCCCCCC(=O)N[C@H](C(=O)N5C[C@H](O)C[C@H]5C(=O)N[C@@H](C)c5ccc(-c6scnc6C)cc5)C(C)(C)C)CC4)cc(Cl)cc32)cc(C)c1F	33%	49%	–	–
Cc1cc(Cn2c(N3CC4(CNC4)C3)nc3c(N4CCN(CCCCCCCCC(=O)N[C@H](C(=O)N5C[C@@H](O)C[C@H]5C(=O)N[C@@H](C)c5ccc(-c6scnc6C)cc5)C(C)(C)C)CC4)cc(Cl)cc32)cc(C)c1F	–	–	–	Active
